Experimental data from ChEMBL document CHEMBL3734705, “Synthesis and in vitro cytotoxicity of novel C-12 substituted-14-deoxy-andrographolide derivatives as potent anti-cancer agents” (2015).
Activity calls are given as the source filed them. The rule behind the calls is not given here.

What was measured:
[1] = tested on: A549; experiment: Cytotoxicity against human A549 cells assessed as growth level at 10 uM after 48 hrs by SRB assay; format: functional
[2] = tested on: EKVX; experiment: Cytotoxicity against human EKVX cells assessed as growth level at 10 uM after 48 hrs by SRB assay; format: functional
[3] = Cytotoxicity against human HCT116 cells assessed as growth level at 10 uM after 48 hrs by SRB assay; format: functional, HCT-116
[4] = tested on: KM12; experiment: Cytotoxicity against human KM12 cells assessed as growth level at 10 uM after 48 hrs by SRB assay; format: functional
[5] = Cytotoxicity against human SF268 cells assessed as growth level at 10 uM after 48 hrs by SRB assay; format: functional, SF-268
[6] = Cytotoxicity against human SF295 cells assessed as growth level at 10 uM after 48 hrs by SRB assay; format: functional, SF-295
[7] = tested on: U-251; experiment: Cytotoxicity against human U251 cells assessed as growth level at 10 uM after 48 hrs by SRB assay; format: functional
[8] = tested on: Malme-3M; experiment: Cytotoxicity against human MALME-3M cells assessed as growth level at 10 uM after 48 hrs by SRB assay; format: functional
[9] = tested on: MDA-MB-435; experiment: Cytotoxicity against human MDA-MB-435 cells assessed as growth level at 10 uM after 48 hrs by SRB assay; format: functional
[10] = Cytotoxicity against human UACC257 cells assessed as growth level at 10 uM after 48 hrs by SRB assay; format: functional, UACC-257
[11] = Cytotoxicity against human OVCAR3 cells assessed as growth level at 10 uM after 48 hrs by SRB assay; format: functional, OVCAR-3
[12] = Cytotoxicity against human OVCAR4 cells assessed as growth level at 10 uM after 48 hrs by SRB assay; format: functional, OVCAR-4
[13] = Cytotoxicity against human OVCAR8 cells assessed as growth level at 10 uM after 48 hrs by SRB assay; format: functional, OVCAR-8
[14] = Cytotoxicity against human NCI-ADR-RES cells assessed as growth level at 10 uM after 48 hrs by SRB assay; format: functional
[15] = tested on: 786-0; experiment: Cytotoxicity against human 786-0 cells assessed as growth level at 10 uM after 48 hrs by SRB assay; format: functional
[16] = tested on: A498; experiment: Cytotoxicity against human A498 cells assessed as growth level at 10 uM after 48 hrs by SRB assay; format: functional
[17] = tested on: ACHN; experiment: Cytotoxicity against human ACHN cells assessed as growth level at 10 uM after 48 hrs by SRB assay; format: functional
[18] = Cytotoxicity against human Caki1 cells assessed as growth level at 10 uM after 48 hrs by SRB assay; format: functional, CAKI-1
[19] = Cytotoxicity against human TK10 cells assessed as growth level at 10 uM after 48 hrs by SRB assay; format: functional, TK-10
[20] = tested on: MDA-MB-231; experiment: Cytotoxicity against human MDA-MB-231 cells assessed as growth level at 10 uM after 48 hrs by SRB assay; format: functional
[21] = tested on: MDA-MB-468; experiment: Cytotoxicity against human MDA-MB-468 cells assessed as growth level at 10 uM after 48 hrs by SRB assay; format: functional
[22] = tested on: K562; experiment: Cytotoxicity against human K562 cells assessed as growth inhibition at 10 uM after 48 hrs by SRB assay; format: functional; details: K562, 48 h, read-out: GI
[23] = Cytotoxicity against human MOLT4 cells assessed as growth inhibition at 10 uM after 48 hrs by SRB assay; format: functional; details: MOLT-4, 48 h, read-out: GI
[24] = tested on: SR; experiment: Cytotoxicity against human SR cells assessed as growth inhibition at 10 uM after 48 hrs by SRB assay; format: functional; details: read-out: GI
[25] = tested on: EKVX; experiment: Cytotoxicity against human EKVX cells assessed as growth inhibition at 10 uM after 48 hrs by SRB assay; format: functional
[26] = Cytotoxicity against human HOP92 cells assessed as growth inhibition at 10 uM after 48 hrs by SRB assay; format: functional; details: HOP-92, 48 h, read-out: GI
[27] = tested on: NCI-H226; experiment: Cytotoxicity against human NCI-H226 cells assessed as growth inhibition at 10 uM after 48 hrs by SRB assay; format: functional; details: NCI-H226, 48 h, read-out: GI
[28] = tested on: NCI-H460; experiment: Cytotoxicity against human NCI-H460 cells assessed as growth inhibition at 10 uM after 48 hrs by SRB assay; format: functional; details: NCI-H460, 48 h, read-out: GI
[29] = Cytotoxicity against human HCT116 cells assessed as growth inhibition at 10 uM after 48 hrs by SRB assay; format: functional; details: HCT-116, 48 h, read-out: GI
[30] = Cytotoxicity against human HCT15 cells assessed as growth inhibition at 10 uM after 48 hrs by SRB assay; format: functional; details: HCT-15, 48 h, read-out: GI
[31] = Cytotoxicity against human SW620 cells assessed as growth inhibition at 10 uM after 48 hrs by SRB assay; format: functional; details: SW-620, 48 h, read-out: GI
[32] = Cytotoxicity against human SF539 cells assessed as growth inhibition at 10 uM after 48 hrs by SRB assay; format: functional; details: SF-539, 48 h, read-out: GI
[33] = Cytotoxicity against human SNB19 cells assessed as growth inhibition at 10 uM after 48 hrs by SRB assay; format: functional; details: SNB-19, 48 h, read-out: GI
[34] = Cytotoxicity against human LOXIMVI cells assessed as growth inhibition at 10 uM after 48 hrs by SRB assay; format: functional; details: LOX IMVI, read-out: GI
[35] = tested on: MDA-MB-435; experiment: Cytotoxicity against human MDA-MB-435 cells assessed as growth inhibition at 10 uM after 48 hrs by SRB assay; format: functional; details: MDA-MB-435, 48 h, read-out: GI
[36] = tested on: SK-MEL-28; experiment: Cytotoxicity against human SK-MEL-28 cells assessed as growth inhibition at 10 uM after 48 hrs by SRB assay; format: functional; details: SK-MEL-28, 48 h, read-out: GI
[37] = Cytotoxicity against human OVCAR3 cells assessed as growth inhibition at 10 uM after 48 hrs by SRB assay; format: functional; details: OVCAR-3, 48 h, read-out: GI
[38] = Cytotoxicity against human OVCAR8 cells assessed as growth inhibition at 10 uM after 48 hrs by SRB assay; format: functional; details: OVCAR-8, 48 h, read-out: GI
[39] = tested on: 786-0; experiment: Cytotoxicity against human 786-0 cells assessed as growth inhibition at 10 uM after 48 hrs by SRB assay; format: functional; details: 786-0, 48 h, read-out: GI
[40] = tested on: MDA-MB-231; experiment: Cytotoxicity against human MDA-MB-231 cells assessed as growth inhibition at 10 uM after 48 hrs by SRB assay; format: functional
[41] = tested on: MDA-MB-468; experiment: Cytotoxicity against human MDA-MB-468 cells assessed as growth inhibition at 10 uM after 48 hrs by SRB assay; format: functional; details: MDA-MB-468, 48 h, read-out: GI
[42] = tested on: K562; experiment: Cytotoxicity against human K562 cells assessed as growth level at 10 uM after 48 hrs by SRB assay; format: functional

SMILES: C=C1CC[C@@H]2[C@](C)(COC(C)=O)[C@H](OC(C)=O)CC[C@@]2(C)[C@@H]1C/C=C1/C(=O)OC[C@H]1OC(C)=O
- Activity [1]: 85.77%
- Activity [2]: 102.98%
- Activity [3]: -37.34%
- Activity [4]: 52.83%
- Activity [5]: 87.06%
- Activity [6]: 95.02%
- Activity [7]: 54.02%
- Activity [8]: 77.72%
- Activity [9]: 33.07%
- Activity [10]: 66.52%
- Activity [11]: -21.32%
- Activity [12]: 66.49%
- Activity [13]: 27.13%
- Activity [14]: 24.99%
- Activity [15]: -10.88%
- Activity [16]: 90.57%
- Activity [17]: 19.55%
- Activity [18]: 81.51%
- Activity [19]: 16.88%
- Activity [20]: 95.84%
- Activity [21]: 7.98%
- inhibition of growth at 10 µM [22]: 88.9%
- inhibition of growth at 10 µM [23]: 6.05%
- inhibition of growth at 10 µM [24]: 94.4%
- growth inhibition (GI) [25]: inactive
- inhibition of growth at 10 µM [26]: 28.1%
- inhibition of growth at 10 µM [27]: 76.4%
- inhibition of growth at 10 µM [28]: 1.96%
- inhibition of growth at 10 µM [29]: 37.3%
- inhibition of growth at 10 µM [30]: 23%
- inhibition of growth at 10 µM [31]: 21.9%
- inhibition of growth at 10 µM [32]: 91.5%
- inhibition of growth at 10 µM [33]: 17%
- inhibition of growth at 10 µM [34]: 74.4%
- inhibition of growth at 10 µM [35]: 66.9%
- inhibition of growth at 10 µM [36]: 62.2%
- inhibition of growth at 10 µM [37]: 21.3%
- inhibition of growth at 10 µM [38]: 72.9%
- inhibition of growth at 10 µM [39]: 10.9%
- inhibition of growth at 10 µM ([40]; MDA-MB-231, 48 h, read-out: GI): 4.16%
- inhibition of growth at 10 µM [41]: 92%
- Activity [42]: 11.07%

SMILES: C=C1CC[C@@H]2[C@](C)(COC(C)=O)[C@H](OC(C)=O)CC[C@@]2(C)[C@@H]1CC(Nc1ccc(S(=O)(=O)NC(C)=O)cc1)C1=CCOC1=O (mixture of isomers)
- Activity [1]: 27.95%
- Activity [2]: 57.45%
- Activity [3]: -63.92%
- Activity [4]: -34%
- Activity [5]: 6.72%
- Activity [6]: 58.44%
- Activity [7]: -65.49%
- Activity [8]: -43.58%
- Activity [9]: -38.84%
- Activity [10]: -10.57%
- Activity [11]: -87.71%
- Activity [12]: 26.08%
- Activity [13]: -18.21%
- Activity [14]: 11.87%
- Activity [15]: -66.04%
- Activity [16]: 73.42%
- Activity [17]: -63.23%
- Activity [18]: 30.25%
- Activity [19]: 2.78%
- Activity [20]: -38.71%
- Activity [21]: -53.94%
- Activity [42]: 4.81%

SMILES: C=C1CC[C@@H]2[C@](C)(COC(C)=O)[C@H](OC(C)=O)CC[C@@]2(C)[C@@H]1CC(Sc1ccccc1)C1=CCOC1=O (mixture of isomers)
- Activity [1]: 26.59%
- Activity [2]: 57.74%
- Activity [3]: -34.58%
- Activity [4]: 18.58%
- Activity [5]: 11.62%
- Activity [6]: 65.88%
- Activity [7]: 22.94%
- Activity [8]: 16.83%
- Activity [9]: 101.38%
- Activity [10]: 29.37%
- Activity [11]: -84.17%
- Activity [12]: 100.23%
- Activity [13]: 11.88%
- Activity [14]: 10.07%
- Activity [15]: -31.19%
- Activity [16]: 86.34%
- Activity [17]: -13.74%
- Activity [18]: 90.6%
- Activity [19]: 11.37%
- Activity [20]: 7.4%
- Activity [21]: -61.07%
- Activity [42]: 3.95%

SMILES: C=C1CC[C@@H]2[C@](C)(CO)[C@H](O)CC[C@@]2(C)[C@@H]1C/C=C1/C(=O)OC[C@H]1O [ANDROGRAPHOLIDE]
- Activity [1]: 87.82%
- Activity [2]: 104.75%
- Activity [3]: 60.01%
- Activity [4]: 80.24%
- Activity [5]: 97.66%
- Activity [6]: 113.89%
- Activity [7]: 75.79%
- Activity [8]: 99.78%
- Activity [9]: 72.62%
- Activity [10]: 76.51%
- Activity [11]: 59.17%
- Activity [12]: 82.87%
- Activity [13]: 84.48%
- Activity [14]: 83.75%
- Activity [15]: 84.71%
- Activity [16]: 87.79%
- Activity [17]: 89.75%
- Activity [18]: 96.7%
- Activity [19]: 97.49%
- Activity [20]: 106.75%
- Activity [21]: 42%
- inhibition of growth at 10 µM [22]: 34.5%
- inhibition of growth at 10 µM [23]: 1.89%
- inhibition of growth at 10 µM [24]: 20.5%
- growth inhibition (GI) [25]: inactive
- inhibition of growth at 10 µM [27]: 8.26%
- inhibition of growth at 10 µM [28]: 2.02%
- inhibition of growth at 10 µM [29]: 40%
- inhibition of growth at 10 µM [30]: 38.1%
- inhibition of growth at 10 µM [31]: 55.7%
- inhibition of growth at 10 µM [32]: 16.6%
- inhibition of growth at 10 µM [33]: 12%
- inhibition of growth at 10 µM [34]: 78.2%
- inhibition of growth at 10 µM [35]: 27.4%
- inhibition of growth at 10 µM [36]: 4.54%
- inhibition of growth at 10 µM [37]: 40.8%
- inhibition of growth at 10 µM [38]: 15.5%
- inhibition of growth at 10 µM [39]: 15.3%
- growth inhibition (GI) [40]: inactive
- inhibition of growth at 10 µM [41]: 58%
- Activity [42]: 65.53%
